Data reported in patent publication US9850470B2, “Polyene-specific glycosyltransferase derived from Pseudonocardia autotrophica” (INHA-INDUSTRY PARTNERSHIP INSTITUTE, priority 2013, dated 2017).

Legend:
[1] = solubility of NPP compared with nystatin; format: physicochemical
[2] = hemolytic activity of NPP compared with nystatin; format: cell-based
[3] = relative to nystatin which contains only a saccharide
[4] = relative to nystatin, which contains only mycosamine

solubility compared with nystatin (in words) [1, 3]: higher solubility | higher solubility than nystatin [1, 4]: more than 300 fold
Structure (SMILES): CC(=O)NC1C(OC2C(C)OC(OC3/C=C/C=C/C=C/C=C/CC/C=C/C=C/C(C)C(O)C(C)C(C)OC(=O)CC(O)CC(O)CC(O)CCC(O)C(O)CC4(O)CC(O)C(C(=O)O)C(C3)O4)C(O)C2N)OC(CO)C(O)C1O (stereo not shown) [NPP, nystatin-like polyene (NPP)]
hemolytic activity compared with nystatin (in words) [2, 3]: lower hemolytic activity | lower hemolytic activity than nystatin [2, 4]: 10 fold
